Assay results as given in US20240206469A1, “PHOSPHORUS USE EFFICIENCY ENHANCERS AS PLANT GROWTH PROMOTORS” (EUROCHEM ANTWERPEN, priority 2021, published 2024).

Key:
[1] = test system: Arabidopsis; test: Arabidopsis horizontal plate leaf area assay; type: in vivo, Arabidopsis thaliana; conditions: 21 days after germination
Experimental: (§1) All Arabidopsis plant experiments were performed using the Arabidopsis thaliana Columbia-0 background. The Arabidopsis pSPX1::GUS line is described in the Plant Journal 2008, 54: 965-975. For rice, the cultivar Nipponbare was used. For maize, the cultivars DKC 2931 and B104 were used for regular pot experiments and sand-based pot experiments, respectively. For soybean, the cultivar Primus was used. […] The medium was solidified due to the addition of 0.6% Gelrite, unless stated otherwise. […]
(§2) Arabidopsis primary root growth experiments were done on MS1/2 on vertical standing plates and roots were measured 11 days after germination. Roots were imaged using a flatbed scanner (EPSON Expression 11000XL) and root length was measured using ImageJ software. Arabidopsis shoot biomass was determined in 11 days after germination and growth on vertical standing plates with modMS. Arabidopsis leaf area was measured 21 days after germination on horizontal plates with modMS medium. Plates were scanned from the top using a flatbed scanner (EPSON Expression 11000XL) and the visible leaf area was measured using ImageJ software. […] Plant height was measured 11 days after germination. […] Plant height was measured 13 days after germination. […]

[2] = test system: Rice; test: Rice plate experiment; type: in vivo, rice cultivar Nipponbare; conditions: low phosphate 0.001 mM, 10 μM, 11 days after germination, control 14.4
Experimental: as §1, §2

[3] = test system: Maize; test: Regular maize pot experiment (potting soil); type: in vivo, maize cultivar DKC 2931; conditions: low phosphate, 10 μM
Experimental: All Arabidopsis plant experiments were performed using the Arabidopsis thaliana Columbia-0 background. The Arabidopsis pSPX1::GUS line is described in the Plant Journal 2008, 54: 965-975. For rice, the cultivar Nipponbare was used. For maize, the cultivars DKC 2931 and B104 were used for regular pot experiments and sand-based pot experiments, respectively. For soybean, the cultivar Primus was used. […] The medium was solidified due to the addition of 0.6% Gelrite, unless stated otherwise. In case of vertical plates (root length and root hair measurements), the medium was supplied with 0.5% of sucrose and 1 μM (low phosphate, 1 μM KH2PO4, 9.9 mM KCl), 10 μM (low phosphate 10 μM KH2PO4, 9.9 mM KCl) or 1.25 mM KH2PO4 (high phosphate). Arabidopsis seeds were stratified for 2 days at 4° C. before germination. Seedlings were germinated in climate-controlled growth chambers at 22° C. under continuous light (100 μmol m^−2 s^−1). Husked rice seeds were germinated on wetted Whatman paper for 2 days at 37° C. and then transferred to Sterivent boxes or square Petri dishes with solid medium. Maize and soybean seeds were wetted 24 hours at room temperature prior to sowing in pots.
Regular Arabidopsis, soybean and maize pot experiments used an unfertilized potting soil, which was supplemented at the start of the experiment with 50 ml H2O containing 0.25 g/l NH4NO3 and 0.44 g/l (high phosphate) or no (maize and soybean) or 0.11 g/l KH2PO (Arabidopsis) for low phosphate conditions. […] Compound concentration was 10 μM, calculated based on the total water content after watering, and was added at the start of the experiment (Arabidopsis) or once a week (maize). […] All parameters in the sand experiment, except the rate of leaf 4 (measured the first 4 days after emergence), were measured 19 days after sowing. Measurements in the pot experiments with potting soil were done after 4 weeks of growth, except for leaf 5, which was measured at 26 days. […]

With `CC1CN(CC(=O)c2c(N)n(C)c(=O)n(C)c2=O)c2ccccc2O1` (stereo not drawn) [Compound 8, 6-amino-1,3-dimethyl-5-[2-(2-methyl-2,3-dihydro-1,4-benzoxazin-4-yl)acetyl]pyrimidine-2,4-dione] the Leaf area ([1]; low phosphate, 10 μM, control 78) was 106 mm^2, the “Leaf area in sub-optimal phosphate conditions” value ([1]; sub-optimal phosphate, control 104) was 143 mm^2 and the Plant height [2] was 16 cm. The Shoot weight ([3]; 4 weeks, control 4) was 4.6 g, the Plant height ([3]; 4 weeks, control 57) was 60 cm and the “Leaf 5” value ([3]; 26 days, control 40) was 48 cm.
